Data: article PMC5269720, “Conformational Change of a Tryptophan Residue in BtuF Facilitates Binding and Transport of Cobinamide by the Vitamin B12 Transporter BtuCD-F” (Scientific Reports, 2017)
Read-outs that look alike come from different tables or passages of the source.

Assays:
[1] = molecular target: T1, wild type BtuFfluo (E.c. BtuF) (Escherichia coli, UniProt P37028, Q145C); assay: Fluorescence quenching substrate binding assay with BtuFfluo, wild type; conditions: BtuFfluo 5 nM, substrate 0.02 nM to 33 μM, 30 min at 10 °C, mean and S.E.M., n = 12
T1 construct: His6; made in house
T1 sequence (P37028 23-266 Q145C): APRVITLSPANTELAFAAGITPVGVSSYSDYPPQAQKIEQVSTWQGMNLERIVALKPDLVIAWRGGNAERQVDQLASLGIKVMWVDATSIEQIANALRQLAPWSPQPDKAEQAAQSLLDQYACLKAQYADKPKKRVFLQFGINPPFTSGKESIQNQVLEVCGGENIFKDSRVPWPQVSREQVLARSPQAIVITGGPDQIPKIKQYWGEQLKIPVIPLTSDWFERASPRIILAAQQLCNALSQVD
Experimental: (§1) For binding assays BtuF was labeled at a cysteine residue in the backbone helix with fluorescein-5-maleimide (Thermo scientific 62245) as described previously. In brief, 50 to 100 μM BtuF Q145C (Invitrogen QuickChange) was labeled with a 10-fold molar excess of fluorescein-5-maleimide (BtuFfluo). The reaction was run over night at 4 °C in the presence of 1 mM TCEP to prevent oxidation and stopped with 5 mM β-mercaptoethanol. Excess label was removed by desalting with PD10 columns and the protein was further purified by size exclusion chromatography. Protein concentration was determined by Bradford assay using BSA for calibration and the labeling efficiency was determined by measuring the absorbance at 494 nm. The labeled protein was flash frozen in liquid nitrogen and stored at −80 °C until the day of use. Final storage buffer was 50 mM HEPES 7, 200 mM NaCl, 0.5 mM EDTA-NaOH 8 and 10% v/v Glycerol.
(§2) The assay is based on monitoring the ligand-induced change in emission of fluorescein attached to BtuF (BtuFfluo). A similar approach has been used to determine the affinity of MBP for maltose in the presence of various sAB[40][41][42]. BtuFfluo at 5 nM was incubated with a range of substrate concentrations from 0.02 nM to 33 μM. After incubation for 30 min at 10 °C the fluorescence intensity was recorded at an excitation wavelength of 485 nm and emission at 528 nm. The maximum signal was recorded in the absence of substrate and decreased with increasing substrate concentration. The difference of the maximum intensity minus the signal at a certain substrate concentration was plotted against the substrate concentration. One site –specific binding in Prism GraphPad was used to fit the data for KD determination (GraphPad Prism version 6.04 for Windows, GraphPad Software, La Jolla California USA, www.graphpad.com”). Binding buffer composition was 50 mM Tris 7.5 and 200 mM NaCl.

[2] = molecular target: T2, BtuFfluo W66F (E.c. BtuF) (Escherichia coli, UniProt P37028, Q145C/W66F); assay: Fluorescence quenching substrate binding assay with BtuFfluo, W66F mutant; conditions: BtuFfluo 5 nM, substrate 0.02 nM to 33 μM, 30 min at 10 °C, mean and S.E.M., n = 12
T2 construct: His6; made in house
T2 sequence (P37028 23-266 W66F/Q145C): as the sequence (P37028 23-266 Q145C) above, with W44F counted along it
Experimental: as §1
The assay is based on monitoring the ligand-induced change in emission of fluorescein attached to BtuF (BtuFfluo). A similar approach has been used to determine the affinity of MBP for maltose in the presence of various sAB[40][41][42]. […] After incubation for 30 min at 10 °C the fluorescence intensity was recorded at an excitation wavelength of 485 nm and emission at 528 nm. The maximum signal was recorded in the absence of substrate and decreased with increasing substrate concentration. […]

[3] = molecular target: T3, BtuFfluo W66Y (E.c. BtuF) (Escherichia coli, UniProt P37028, Q145C/W66Y); assay: Fluorescence quenching substrate binding assay with BtuFfluo, W66Y mutant; conditions: for Kd: BtuFfluo 5 nM, substrate 0.02 nM to 33 μM, 30 min at 10 °C, mean and S.E.M., n = 12
T3 construct: His6; made in house
T3 sequence (P37028 23-266 W66Y/Q145C): as the sequence (P37028 23-266 Q145C) above, with W44Y counted along it
Experimental: as §1, §2

[4] = molecular target: T4, BtuFfluo W66L (E.c. BtuF) (Escherichia coli, UniProt P37028, Q145C/W66L); assay: Fluorescence quenching substrate binding assay with BtuFfluo, W66L mutant; conditions: for Kd: BtuFfluo 5 nM, substrate 0.02 nM to 33 μM, 30 min at 10 °C, mean and S.E.M., n = 12
T4 construct: His6; made in house
T4 sequence (P37028 23-266 W66L/Q145C): as the sequence (P37028 23-266 Q145C) above, with W44L counted along it
Experimental: as §1, §2

[5] = molecular target: T5, BtuFfluo W66H (E.c. BtuF) (Escherichia coli, UniProt P37028, Q145C/W66H); assay: Fluorescence quenching substrate binding assay with BtuFfluo, W66H mutant; conditions: for Kd: BtuFfluo 5 nM, substrate 0.02 nM to 33 μM, 30 min at 10 °C, mean and S.E.M., n = 12
T5 construct: His6; made in house
T5 sequence (P37028 23-266 W66H/Q145C): as the sequence (P37028 23-266 Q145C) above, with W44H counted along it
Experimental: as §1, §2

[6] = molecular target: T6, BtuFfluo W66R (E.c. BtuF) (Escherichia coli, UniProt P37028, Q145C/W66R); assay: Fluorescence quenching substrate binding assay with BtuFfluo, W66R mutant; conditions: for decrease in affinity compared to wt: W66R (arginine) versus wild type BtuF; for Kd: BtuFfluo 5 nM, substrate 0.02 nM to 33 μM, 30 min at 10 °C, mean and S.E.M., n = 9
T6 construct: His6; made in house
T6 sequence (P37028 23-266 W66R/Q145C): as the sequence (P37028 23-266 Q145C) above, with W44R counted along it
Experimental: as §1, §2

[7] = molecular target: T7, BtuFfluo W66A (E.c. BtuF) (Escherichia coli, UniProt P37028, Q145C/W66A); assay: Fluorescence quenching substrate binding assay with BtuFfluo, W66A mutant; conditions: BtuFfluo 5 nM, substrate 0.02 nM to 33 μM, 30 min at 10 °C, mean and S.E.M., n = 12
T7 construct: His6; made in house
T7 sequence (P37028 23-266 W66A/Q145C): as the sequence (P37028 23-266 Q145C) above, with W44A counted along it
Experimental: as §1, §2

[8] = molecular target: T8, BtuFfluo W66E (E.c. BtuF) (Escherichia coli, UniProt P37028, Q145C/W66E); assay: Fluorescence quenching substrate binding assay with BtuFfluo, W66E mutant
T8 construct: His6; made in house
T8 sequence (P37028 23-266 W66E/Q145C): as the sequence (P37028 23-266 Q145C) above, with W44E counted along it
Experimental: as §1, §2

[9] = molecular target: T9, wild type BtuCD-F (Escherichia coli, UniProt P06609+P37028); assay: In vitro substrate transport assay with liposome reconstituted BtuCD and wild type BtuF; format: biochemical
T9 construct: His10 (N); made in house
T9 sequence (P06609 whole entry): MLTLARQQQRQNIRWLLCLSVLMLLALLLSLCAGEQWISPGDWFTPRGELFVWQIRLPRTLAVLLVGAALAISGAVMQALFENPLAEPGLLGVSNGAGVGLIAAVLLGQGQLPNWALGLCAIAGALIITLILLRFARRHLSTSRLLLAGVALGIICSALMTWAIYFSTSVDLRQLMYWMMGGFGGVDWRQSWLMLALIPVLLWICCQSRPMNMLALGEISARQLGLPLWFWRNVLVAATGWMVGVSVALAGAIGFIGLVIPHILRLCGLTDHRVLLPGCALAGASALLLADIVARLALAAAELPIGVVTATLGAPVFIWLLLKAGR
T9 sequence (P37028 23-266): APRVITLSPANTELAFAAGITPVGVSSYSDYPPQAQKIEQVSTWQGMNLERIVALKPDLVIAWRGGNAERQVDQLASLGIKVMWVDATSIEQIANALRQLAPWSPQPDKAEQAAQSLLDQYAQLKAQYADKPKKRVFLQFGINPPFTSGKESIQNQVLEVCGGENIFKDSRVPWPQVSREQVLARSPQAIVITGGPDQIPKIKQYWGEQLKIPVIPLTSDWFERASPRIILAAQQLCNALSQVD
T9 sequence (P06611 whole entry, further chain): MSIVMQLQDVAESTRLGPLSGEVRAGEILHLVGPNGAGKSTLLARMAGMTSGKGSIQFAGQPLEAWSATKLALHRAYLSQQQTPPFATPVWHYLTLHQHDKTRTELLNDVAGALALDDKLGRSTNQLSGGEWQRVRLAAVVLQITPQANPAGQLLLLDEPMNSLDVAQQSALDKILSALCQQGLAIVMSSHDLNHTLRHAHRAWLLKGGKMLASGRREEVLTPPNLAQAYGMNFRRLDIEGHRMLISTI
Experimental: (§3) BtuCD was expressed, purified and reconstituted as described previously with some modifications regarding buffer composition and reconstitution procedure. In brief, BtuCD with an N-terminal His10-tag on BtuC was purified by IMAC and desalted into a buffer of the following composition: 50 mM Tris 7.5, 500 mm NaCl, 0.5 mM EDTA-NaOH 8 and 0.1% w/v LDAO. Purified protein was used directly for reconstitution into liposomes consisting of E. coli Polar lipids and α-Phosphatidylcholine (3:1 weight ratio, Avanti Polar Lipids 100600 C and 840051 C). Liposomes were destabilized with 0.3% w/v Triton X-100 for 20 min at RT. Protein was added with a ratio of 50:1 LPR and incubated for 90 min at RT. Detergent was removed by BioBeads (40 mg/ml mixture) in 4 steps and proteoliposomes were stored at −80 °C until the day of experiment. The protein concentration within the liposomes was determined by Amido black protein assay using BSA for the calibration curve.
The amount of right-side-in oriented BtuCD in liposomes was determined as described previously for ABC type II importer HmuUV with minor modifications. […] The amount of BtuFfluo associated with the liposomes was determined by measuring the fluorescence signal at an excitation wavelength of 485 nm and an emission wavelength of 516 nm. Unspecific BtuFfluo interaction with liposomes was measured using empty liposomes. […]

[10] = system: wild type BtuCD with BtuF W66 mutants (W66A, W66R, W66E, W66F); assay: In vitro substrate transport assay with liposome reconstituted wild type BtuCD and BtuF W66 mutants; format: biochemical, Escherichia coli; conditions: 4 mg/ml proteoliposomes (~0.5 μM total BtuCD), 1 μM BtuF, 2 mM ATP, 15 μM cobinamide or cyanocobalamin
Experimental: as §3
The amount of right-side-in oriented BtuCD in liposomes was determined as described previously for ABC type II importer HmuUV with minor modifications. Briefly, liposome-reconstituted BtuCD was incubated with 1 μM fluorescently labeled BtuF (BtuFfluo) for 30 min at RT followed by a spin to remove excess BtuFfluo. The pellet was washed and resuspended at 1.25 mg/ml liposome concentration. The amount of BtuFfluo associated with the liposomes was determined by measuring the fluorescence signal at an excitation wavelength of 485 nm and an emission wavelength of 516 nm. Unspecific BtuFfluo interaction with liposomes was measured using empty liposomes.
For the substrate transport assays radiolabeled ^14C-cyano-aquo-cobinamide (^14CN-Cbi, labeled in house) or ^57Co-cyanocobalamin (^57Co-Cbl, MP Biomedicals 06B-430000, 10.5 uCi) was used. […] The radioactivity trapped on the filters was measured either by a β counter using LCS in case of ^14CN-Cbi or a γ counter in case of ^57Co-Cbl. Initial transport rates were determined by using linear regression in PrismGraphpad.

C/C1=C2/[N-][C@H]([C@H](CC(N)=O)[C@@]2(C)CCC(=O)NC[C@@H](C)O)[C@]2(C)N=C(/C(C)=C3N=C(/C=C4N=C1[C@@H](CCC(N)=O)C\4(C)C)[C@@H](CCC(N)=O)[C@]\3(C)CC(N)=O)[C@@H](CCC(N)=O)[C@]2(C)CC(N)=O.[Co+3] [Cbi, cobinamide]
Kd ([1]; di-CN-Cbi, read-out: KD of Cbi): 40 ± 10 nM
Kd ([2]; di-CN-Cbi, read-out: KD of Cbi): 30 ± 7 nM
reduced affinity compared to wt ([3]; W66Y (tyrosine) versus wild type BtuF): 3 fold
Kd ([3]; di-CN-Cbi, read-out: KD of Cbi): 150 ± 30 nM
reduced affinity compared to wt ([4]; W66L (leucine) versus wild type BtuF): 3 fold
Kd ([4]; di-CN-Cbi, read-out: KD of Cbi): 120 ± 20 nM
reduced affinity compared to wt ([5]; W66H (histidine) versus wild type BtuF): more than 10 fold
Kd ([5]; di-CN-Cbi, read-out: KD of Cbi): 500 ± 100 nM
decrease in affinity compared to wt [6]: more than 10 fold
Kd ([6]; di-CN-Cbi, read-out: KD of Cbi): 800 ± 200 nM
KD of Cbi ([7]; di-CN-Cbi): low micromolar range
Kd ([7]; di-CN-Cbi, read-out: KD of Cbi): 1800 ± 800 nM
KD of Cbi ([8]; di-CN-Cbi, BtuFfluo 5 nM, substrate 0.02 nM to 33 μM, 30 min at 10 °C, mean and S.E.M., n = 12): low micromolar range
Kd ([8]; di-CN-Cbi, BtuFfluo 5 nM, substrate 0.02 nM to 33 μM, 30 min at 10 °C, mean and S.E.M., n = 12, read-out: KD of Cbi): 2900 ± 800 nM
initial transport rate ([9]; 14CN-Cbi, 4 mg/ml proteoliposomes (~0.5 μM total BtuCD), 1 μM BtuF, 15 μM cobinamide, 2 mM ATP, 22 °C, corrected for right-side-in oriented transporters, mean ± S.E.M., n = 6): 0.7 ± 0.2 nmol Cbi/mg protein/min
in vitro turnover number for Cbi transport, slower than that of Cbl transport ([9]; calculated, Cbi versus Cbl transport by wild type BtuCD-F): approximately 1.5 fold
effect of BtuF W66X substitution on in vitro transport rate [10]: hardly affected
effect of BtuF W66X substitution on in vitro transport rate ([10]; listed as cobinamide): not influenced

cyanocobalamin [Cbl]
KD of Cbl ([1]; CN-Cbl): low nM range
Kd ([1]; CN-Cbl, read-out: KD of Cbl): 9.1 ± 2.6 nM
Kd ([2]; CN-Cbl, read-out: KD of Cbl): 8 ± 1.9 nM
Kd ([3]; CN-Cbl, read-out: KD of Cbl): 5.7 ± 1.7 nM
Kd ([4]; CN-Cbl, read-out: KD of Cbl): 15 ± 2 nM
Kd ([5]; CN-Cbl, read-out: KD of Cbl): 5.5 ± 1.7 nM
Kd ([6]; CN-Cbl, read-out: KD of Cbl): 68 ± 13 nM
decrease in affinity compared to wt [6]: ~ 7 fold
Kd ([7]; CN-Cbl, read-out: KD of Cbl): 14 ± 4 nM
Kd ([8]; CN-Cbl, BtuFfluo 5 nM, substrate 0.02 nM to 33 μM, 30 min at 10 °C, mean and S.E.M., n = 12, read-out: KD of Cbl): 57 ± 15 nM
decrease in affinity compared to wt ([8]; W66E (glutamate) versus wild type BtuF): ~ 7 fold
effect of BtuF W66X substitution on in vitro transport rate [10]: not influenced
